Assay results: paper PMC7504770, “Mechanistic Insights into the Chaperoning of Human Lysosomal-Galactosidase Activity: Highly Functionalized Aminocyclopentanes and C-5a-Substituted Derivatives of 4-epi-Isofagomine” (Molecules, 2020)
pKi: −log10 of the molar value.

Legend:
Format in all cases: biochemical
[1] = biological target: lac Z β-galactosidase from E. coli (GH2) (Escherichia coli, UniProt P00722); assay: Ki determination, E. coli lac Z β-galactosidase
Method: (§1) Kinetic studies were performed at 37 °C in an appropriate buffer (specific conditions depicted below). In a typical assay, the enzyme was incubated with different inhibitor concentrations for up to 5 min before initiating the reaction by the addition of substrate. The initial reaction rate was measured by monitoring the increase in absorbance at 400 nm for up to ten minutes using a Cary4000 (Varian, Palo Alto, CA, USA). Ki determinations were performed using at least two different substrate concentrations. For each inhibitor, a range of four to six inhibitor concentrations bracketing the ultimately determined Ki value was used for each substrate concentration. Dixon plots (1/v vs. [I]) were constructed to validate the use of competitive inhibition model. The data were then fit using non-linear regression analysis with Grafit 7.0 [Erithacus Software, UK].
(§2) n.i. stands for no inhibition or weak inhibition with an estimated Ki value higher than 1 mM.
E. coli lac z β-galactosidase: 50 mM sodium phosphate, 1.0 mM MgCl2 (pH 7). Substrate: pNP β-Gal, Km = 60 µM.

[2] = biological target: T1, Fabrazyme = commercial recombinant lysosomal α-galactosidase (GH27) (Homo sapiens, UniProt P06280); assay: Ki determination, Fabrazyme (acid α-galactosidase); conditions: 37 °C, pH 5.5, substrate 2,4-DNP α-Gal
T1 construct: purchased
T1 sequence (P06280 32-429): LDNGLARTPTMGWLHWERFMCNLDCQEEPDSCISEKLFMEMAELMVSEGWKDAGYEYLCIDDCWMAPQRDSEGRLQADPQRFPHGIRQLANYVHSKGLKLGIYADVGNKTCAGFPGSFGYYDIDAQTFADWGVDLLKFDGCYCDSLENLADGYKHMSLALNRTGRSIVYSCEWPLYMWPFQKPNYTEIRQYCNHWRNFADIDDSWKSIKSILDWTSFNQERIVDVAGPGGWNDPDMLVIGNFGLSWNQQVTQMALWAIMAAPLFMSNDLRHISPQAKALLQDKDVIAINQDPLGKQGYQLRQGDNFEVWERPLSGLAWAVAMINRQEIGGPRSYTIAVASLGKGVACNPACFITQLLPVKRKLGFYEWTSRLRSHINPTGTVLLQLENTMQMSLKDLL
Method: as §1, §2
Fabrazyme (Acid α-galactosidase): 20 mM sodium citrate, 50 mM sodium phosphate, 1.0 mM tetrasodium EDTA, 0.25% v/v Triton X-100® and 0.25% w/v taurocholic acid buffer (pH 5.5). Substrate: 2,4-DNP α-Gal, Km = 0.65 mM.

[3] = biological target: T2, β-galactosidase from bovine liver (GH35) (Bos taurus, UniProt Q58D55); assay: Ki determination, bovine liver β-galactosidase; conditions: for pKi: 37 °C, pH 7, substrate pNP β-Gal; for fold weaker binding than 17, bovine liver β-galactosidase: compared with hydroxylated inhibitor 17
T2 construct: Bovine liver β-galactosidase; from tissue; host or cells: bovine liver
T2 sequence (Q58D55 28-653): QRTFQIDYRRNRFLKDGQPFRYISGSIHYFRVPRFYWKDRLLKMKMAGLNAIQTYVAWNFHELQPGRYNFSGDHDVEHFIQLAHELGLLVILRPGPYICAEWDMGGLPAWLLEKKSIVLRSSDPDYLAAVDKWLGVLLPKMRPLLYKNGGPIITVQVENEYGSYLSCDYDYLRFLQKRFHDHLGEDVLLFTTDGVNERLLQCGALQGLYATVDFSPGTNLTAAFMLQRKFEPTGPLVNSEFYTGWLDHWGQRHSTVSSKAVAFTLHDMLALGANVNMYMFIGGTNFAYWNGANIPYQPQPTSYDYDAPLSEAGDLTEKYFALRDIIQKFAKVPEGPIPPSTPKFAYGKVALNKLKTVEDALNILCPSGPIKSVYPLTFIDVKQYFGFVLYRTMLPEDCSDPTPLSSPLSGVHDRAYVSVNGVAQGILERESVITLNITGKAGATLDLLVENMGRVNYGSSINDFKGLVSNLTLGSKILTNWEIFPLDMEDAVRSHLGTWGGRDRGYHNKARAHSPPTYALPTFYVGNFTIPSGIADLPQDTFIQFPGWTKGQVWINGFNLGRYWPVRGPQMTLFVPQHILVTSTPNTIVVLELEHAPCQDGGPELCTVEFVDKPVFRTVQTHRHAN
Method: as §1, §2
Bovine liver β-galactosidase: 50 mM sodium phosphate buffer (pH 7). Substrate: pNP β-Gal, Km = 0.65 mM.

Sequence of lac Z β-galactosidase from E. coli (GH2) (P00722 2-1024): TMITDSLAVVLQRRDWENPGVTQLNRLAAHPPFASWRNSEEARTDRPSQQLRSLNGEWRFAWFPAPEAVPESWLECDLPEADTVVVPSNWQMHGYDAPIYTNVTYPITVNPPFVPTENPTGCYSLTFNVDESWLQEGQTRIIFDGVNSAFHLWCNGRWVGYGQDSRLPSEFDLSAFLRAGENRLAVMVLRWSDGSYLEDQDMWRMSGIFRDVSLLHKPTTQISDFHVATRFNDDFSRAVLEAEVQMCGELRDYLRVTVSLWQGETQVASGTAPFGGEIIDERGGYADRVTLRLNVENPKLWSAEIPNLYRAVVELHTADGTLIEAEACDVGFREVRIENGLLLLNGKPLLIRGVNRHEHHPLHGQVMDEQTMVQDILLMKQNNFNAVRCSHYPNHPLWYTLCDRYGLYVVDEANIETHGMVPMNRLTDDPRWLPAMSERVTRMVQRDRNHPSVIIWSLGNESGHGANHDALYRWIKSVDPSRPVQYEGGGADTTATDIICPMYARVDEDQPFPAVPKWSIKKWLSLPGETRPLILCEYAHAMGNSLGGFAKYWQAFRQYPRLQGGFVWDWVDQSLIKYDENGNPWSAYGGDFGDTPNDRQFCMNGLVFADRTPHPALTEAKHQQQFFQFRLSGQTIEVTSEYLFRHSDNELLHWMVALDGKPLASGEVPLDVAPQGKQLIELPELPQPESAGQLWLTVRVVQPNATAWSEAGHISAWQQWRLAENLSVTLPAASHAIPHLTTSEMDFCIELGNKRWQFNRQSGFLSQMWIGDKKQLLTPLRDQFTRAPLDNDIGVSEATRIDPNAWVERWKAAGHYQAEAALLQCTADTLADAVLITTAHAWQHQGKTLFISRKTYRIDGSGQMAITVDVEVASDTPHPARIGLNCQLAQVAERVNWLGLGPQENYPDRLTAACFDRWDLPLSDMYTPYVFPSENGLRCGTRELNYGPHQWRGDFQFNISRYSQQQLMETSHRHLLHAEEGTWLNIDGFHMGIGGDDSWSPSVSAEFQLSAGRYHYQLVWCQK

| Structure (SMILES) | pKi [1] | pKi [2] | pKi [3] | fold weaker binding than 17, bovine liver β-galactosidase [3] | binding energy difference to 17, bovine β-galactosidase ([3]; corresponding to the 20 fold Ki difference 31 vs 17) [kcal/mol] | fold weaker binding than 17, GH2 bacterial glycosidase ([1]; compared to inhibitor 17) |
| --- | --- | --- | --- | --- | --- | --- |
| CCCCCCCCNC1C=C(CO)C(O)C(O)C1O (stereo not drawn) [Compound 1, N-octyl-epi-valienamine] | 5.55 | < 3.00 | – | – | – | – |
| CCCCCCCCN[C@H]1[C@H](O)[C@@H](O)[C@@H](O)[C@H]1CO [Compound 16] | 7.88 | < 3.00 | 6.93 | – | – | – |
| CN(C)c1cccc2c(S(=O)(=O)NCCCCCC[C@H]3NC[C@@H](O)[C@@H](O)[C@H]3CO)cccc12 [Compound 22] | 9.40 | < 3.00 | 9.30 | – | – | – |
| CN(C)c1cccc2c(S(=O)(=O)NCCCCCCN[C@H]3C[C@@H](O)[C@@H](O)[C@H]3CO)cccc12 [Compound 31, (1R,2S,3R,4S)-3-Hydroxymethyl-4-(6′-dansylaminohexylamino)cyclopentane-1,2-diol] | 8.39 | < 3.00 | 6.99 | ~20 fold | ~2 | – |
| CN(C)c1cccc2c(S(=O)(=O)NCCCCCCN[C@H]3[C@H](F)[C@@H](O)[C@@H](O)[C@H]3CO)cccc12 [Compound 37, (1S,2S,3S,4R,5R)-4-(6′-Dansylaminohexyl)amino-3-fluoro-5-hydroxymethylcyclopentane-1,2-diol] | 5.28 | < 3.00 | 6.86 | more than 12 fold | – | approx. 500 fold |
